# In publication PMC5218480 (PLoS ONE, 2017):
# System: MV-4-11 cells
# Experiment: Gene expression microarray analysis (Affymetrix PrimeView) and GSEA
# Assay type: cell-based, human
# Design: RFU PODN (11730768_x_at) / Fold change /veh PODN (11730768_x_at) / RFU LINC00158 (11744669_a_at) / Fold change /veh LINC00158 (11744669_a_at) / RFU DUSP10 (11751237_a_at) / Fold change /veh DUSP10 (11751237_a_at) / RFU ID3 (11757404_x_at) / Fold change /veh ID3 (11757404_x_at) / RFU PLEKHG5 (11737974_s_at) / Fold change /veh PLEKHG5 (11737974_s_at) / RFU LRRC4B (11730491_at) / Fold change /veh LRRC4B (11730491_at) / RFU GIMAP4 (11747438_a_at) / Fold change /veh GIMAP4 (11747438_a_at) / RFU KRT8 (11758183_x_at) / Fold change /veh KRT8 (11758183_x_at) / RFU CNN1 (11734310_a_at) / Fold change /veh CNN1 (11734310_a_at) / RFU VPS37D (11726825_at) / Fold change /veh VPS37D (11726825_at) / RFU C10orf10 (11716522_x_at) / Fold change /veh C10orf10 (11716522_x_at) / RFU KIR2DL2 /// KIR2DL4 /// KIR2DL5A /// KIR2DL5B /// KIR2DS1 /// KIR2DS2 /// KIR2DS3 /// KIR2DS4 /// KIR3DL3 /// KIR3DL3 /// KIR3DS1 (11738374_at) / Fold change /veh KIR2DL2 /// KIR2DL4 /// KIR2DL5A /// KIR2DL5B /// KIR2DS1 /// KIR2DS2 /// KIR2DS3 /// KIR2DS4 /// KIR3DL3 /// KIR3DL3 /// KIR3DS1 (11738374_at) / RFU C1QL1 (11718748_at) / Fold change /veh C1QL1 (11718748_at) / RFU TMPRSS4 (11747572_a_at) / Fold change /veh TMPRSS4 (11747572_a_at) / RFU HAMP (11756126_x_at) / Fold change /veh HAMP (11756126_x_at) / RFU RNFT2 (11725882_a_at) / Fold change /veh RNFT2 (11725882_a_at) / RFU NR4A2 (11747474_a_at) / Fold change /veh NR4A2 (11747474_a_at) / RFU ABCC12 (11746883_a_at) / Fold change /veh ABCC12 (11746883_a_at) / RFU TMEM136 (11760407_x_at) / Fold change /veh TMEM136 (11760407_x_at) / RFU CLDN22 /// WWC2 (11732394_at) / Fold change /veh CLDN22 /// WWC2 (11732394_at) / RFU HLA-DPB1 (11760878_x_at) / Fold change /veh HLA-DPB1 (11760878_x_at) / RFU SPINT1 (11716480_a_at) / Fold change /veh SPINT1 (11716480_a_at) / RFU GAP43 (11754022_s_at) / Fold change /veh GAP43 (11754022_s_at) / RFU A4GNT (11735810_at) / Fold change /veh A4GNT (11735810_at) / RFU PRB3 (11715151_x_at) / Fold change /veh PRB3 (11715151_x_at) / RFU TUBB4B (11761932_at) / Fold change /veh TUBB4B (11761932_at) / RFU CAPN14 (11732068_a_at) / Fold change /veh CAPN14 (11732068_a_at) / RFU TMCC2 (11721928_a_at) / Fold change /veh TMCC2 (11721928_a_at) / RFU IRGQ (11745062_a_at) / Fold change /veh IRGQ (11745062_a_at) / RFU FAM174B (11720279_a_at) / Fold change /veh FAM174B (11720279_a_at) / RFU TMPRSS4 (11748680_a_at) / Fold change /veh TMPRSS4 (11748680_a_at) / RFU FAM212B (11763350_a_at) / Fold change /veh FAM212B (11763350_a_at) / RFU PLEKHG5 (11743358_a_at) / Fold change /veh PLEKHG5 (11743358_a_at) / RFU ZSCAN30 (11745921_a_at) / Fold change /veh ZSCAN30 (11745921_a_at) / RFU CMKLR1 (11741424_a_at) / Fold change /veh CMKLR1 (11741424_a_at) / RFU LOC101060620 /// MAPK8IP1 (11723275_at) / Fold change /veh LOC101060620 /// MAPK8IP1 (11723275_at) / RFU SPTSSB (11747773_x_at) / Fold change /veh SPTSSB (11747773_x_at) / RFU PRSS12 (11739890_at) / Fold change /veh PRSS12 (11739890_at) / RFU BIN1 (11741810_x_at) / Fold change /veh BIN1 (11741810_x_at) / RFU WNT11 (11732464_a_at) / Fold change /veh WNT11 (11732464_a_at) / RFU C10orf10 (11716521_a_at) / Fold change /veh C10orf10 (11716521_a_at) / RFU C5orf56 (11738089_at) / Fold change /veh C5orf56 (11738089_at) / RFU CYB561 (11721691_x_at) / Fold change /veh CYB561 (11721691_x_at) / RFU ANKRD19P (11752326_a_at) / Fold change /veh ANKRD19P (11752326_a_at) / RFU OR2T12 /// OR2T33 /// OR2T8 (11738714_s_at) / Fold change /veh OR2T12 /// OR2T33 /// OR2T8 (11738714_s_at) / RFU VCAN (11748164_a_at) / Fold change /veh VCAN (11748164_a_at) / RFU JSRP1 (11732532_at) / Fold change /veh JSRP1 (11732532_at) / RFU KRTAP10-11 (11738290_x_at) / Fold change /veh KRTAP10-11 (11738290_x_at) / RFU MYO3A (11730013_a_at) / Fold change /veh MYO3A (11730013_a_at) / RFU EBF3 (11725865_a_at) / Fold change /veh EBF3 (11725865_a_at) / RFU CAMK2N1 (11719241_x_at) / Fold change /veh CAMK2N1 (11719241_x_at) / RFU C5orf56 (11738088_a_at) / Fold change /veh C5orf56 (11738088_a_at) / RFU OLFML3 (11715873_a_at) / Fold change /veh OLFML3 (11715873_a_at) / RFU LOC100653217 /// NTM (11731650_a_at) / Fold change /veh LOC100653217 /// NTM (11731650_a_at) / RFU MAPK11 (11762145_a_at) / Fold change /veh MAPK11 (11762145_a_at) / RFU FIZ1 (11724087_x_at) / Fold change /veh FIZ1 (11724087_x_at) / RFU OASL (11726364_x_at) / Fold change /veh OASL (11726364_x_at) / RFU SOX15 (11748057_x_at) / Fold change /veh SOX15 (11748057_x_at) / RFU CD79A (11719716_a_at) / Fold change /veh CD79A (11719716_a_at) / RFU HIST1H1D (11736915_at) / Fold change /veh HIST1H1D (11736915_at) / RFU CASKIN2 (11723855_a_at) / Fold change /veh CASKIN2 (11723855_a_at) / RFU LOC730098 (11760151_x_at) / Fold change /veh LOC730098 (11760151_x_at) / RFU OR4N2 (11742367_at) / Fold change /veh OR4N2 (11742367_at) / RFU PRRT2 (11749266_a_at) / Fold change /veh PRRT2 (11749266_a_at) / RFU SNX32 (11753110_a_at) / Fold change /veh SNX32 (11753110_a_at) / RFU CDHR5 (11726645_a_at) / Fold change /veh CDHR5 (11726645_a_at) / RFU RCAN1 (11760418_a_at) / Fold change /veh RCAN1 (11760418_a_at) / RFU FAM167A (11723789_a_at) / Fold change /veh FAM167A (11723789_a_at) / RFU FAM26E (11764081_at) / Fold change /veh FAM26E (11764081_at) / RFU ISYNA1 (11749810_s_at) / Fold change /veh ISYNA1 (11749810_s_at) / RFU ACY1 (11761880_at) / Fold change /veh ACY1 (11761880_at) / RFU 11764098_at / Fold change /veh 11764098_at / RFU SAMD14 (11745864_x_at) / Fold change /veh SAMD14 (11745864_x_at) / RFU NPB (11741838_a_at) / Fold change /veh NPB (11741838_a_at) / RFU TMPRSS6 (11731388_a_at) / Fold change /veh TMPRSS6 (11731388_a_at) / RFU KRTAP10-2 (11738614_at) / Fold change /veh KRTAP10-2 (11738614_at) / RFU ARHGAP8 /// PRR5-ARHGAP8 (11727945_x_at) / Fold change /veh ARHGAP8 /// PRR5-ARHGAP8 (11727945_x_at) / RFU KRTAP5-7 /// NADSYN1 (11734609_at) / Fold change /veh KRTAP5-7 /// NADSYN1 (11734609_at) / RFU RASL12 (11751679_a_at) / Fold change /veh RASL12 (11751679_a_at) / RFU CDKN2B (11736163_a_at) / Fold change /veh CDKN2B (11736163_a_at) / RFU PRF1 (11729649_at) / Fold change /veh PRF1 (11729649_at) / RFU, ZNF638 /// ZNF638-IT1 / Fold change vs veh, ZNF638 /// ZNF638-IT1 / RFU, PANK3 / Fold change vs veh, PANK3 / RFU, SH3YL1 / Fold change vs veh, SH3YL1 / RFU, ZEB2 / Fold change vs veh, ZEB2 / RFU, NRIP1 / Fold change vs veh, NRIP1 / RFU, PTTG1IP / Fold change vs veh, PTTG1IP / RFU, CAPN2 / Fold change vs veh, CAPN2 / RFU, MED14 / Fold change vs veh, MED14 / RFU, SNORA58 / Fold change vs veh, SNORA58 / RFU, C1orf63 / Fold change vs veh, C1orf63 / RFU, LRRFIP1 / Fold change vs veh, LRRFIP1 / RFU, NDUFAF7 / Fold change vs veh, NDUFAF7 / RFU, SLC12A2 / Fold change vs veh, SLC12A2 / RFU, IBTK / Fold change vs veh, IBTK / RFU, ESF1 / Fold change vs veh, ESF1 / Fold change vs veh, TMEM50B / RFU, TAOK1 / Fold change vs veh, TAOK1 / RFU, ACBD3 / Fold change vs veh, ACBD3 / RFU, TMA16 / Fold change vs veh, TMA16 / RFU, RWDD3 / Fold change vs veh, RWDD3 / RFU, BCAT1 / Fold change vs veh, BCAT1 / RFU, EDEM3 / Fold change vs veh, EDEM3 / RFU, TMEM33 / Fold change vs veh, TMEM33 / RFU, WDR75 / Fold change vs veh, WDR75 / RFU, AHCTF1 / Fold change vs veh, AHCTF1 / RFU, TFRC / Fold change vs veh, TFRC / RFU, ZDHHC17 / Fold change vs veh, ZDHHC17 / RFU, NOM1 / Fold change vs veh, NOM1 / RFU, ARL8B / Fold change vs veh, ARL8B / RFU, ZBTB11 / Fold change vs veh, ZBTB11 / RFU, TAMM41 / Fold change vs veh, TAMM41 / RFU, KIAA1704 /// LOC100996395 / Fold change vs veh, KIAA1704 /// LOC100996395 / RFU, ING1 / Fold change vs veh, ING1 / RFU, TRMT61B / Fold change vs veh, TRMT61B / RFU, FUBP3 / Fold change vs veh, FUBP3 / RFU, TP53 / Fold change vs veh, TP53 / RFU, TNKS2 / Fold change vs veh, TNKS2 / RFU, ZFP14 / Fold change vs veh, ZFP14 / RFU, ACTR2 / Fold change vs veh, ACTR2 / RFU, PPP3R1 / Fold change vs veh, PPP3R1 / RFU, PIK3R1 / Fold change vs veh, PIK3R1 / RFU, HNRNPA1 / Fold change vs veh, HNRNPA1 / RFU, RNF170 / Fold change vs veh, RNF170 / RFU, ZNF28 / Fold change vs veh, ZNF28 / RFU, RNGTT / Fold change vs veh, RNGTT / RFU, OGT / Fold change vs veh, OGT / RFU, BRD1 / Fold change vs veh, BRD1 / RFU, MARS / Fold change vs veh, MARS / RFU, ZNF655 / Fold change vs veh, ZNF655 / RFU, FAHD1 / Fold change vs veh, FAHD1 / RFU, BDP1 / Fold change vs veh, BDP1 / RFU, LRRCC1 / Fold change vs veh, LRRCC1 / RFU, ARID1A / Fold change vs veh, ARID1A / RFU, ZNF146 / Fold change vs veh, ZNF146 / RFU, ZNF330 / Fold change vs veh, ZNF330 / RFU, GPN3 / Fold change vs veh, GPN3 / RFU, C9orf123 / Fold change vs veh, C9orf123 / RFU, N4BP2L2 / Fold change vs veh, N4BP2L2 / RFU, ARFIP1 / Fold change vs veh, ARFIP1 / RFU, FAM179B / Fold change vs veh, FAM179B / RFU, BCL10 / Fold change vs veh, BCL10 / RFU, UHRF1BP1L / Fold change vs veh, UHRF1BP1L / RFU, BET1 / Fold change vs veh, BET1 / RFU, CNOT2 / Fold change vs veh, CNOT2 / RFU, ZNF268 / Fold change vs veh, ZNF268 / Fold change vs veh, ZNF507 / RFU, DGCR2 / Fold change vs veh, DGCR2 / RFU, WDSUB1 / Fold change vs veh, WDSUB1 / Fold change vs veh, HSP90B1 /// MIR3652 / RFU, ADSS / Fold change vs veh, ADSS / RFU, GK / Fold change vs veh, GK / RFU, ZNF148 / Fold change vs veh, ZNF148 / RFU, TAF9 / Fold change vs veh, TAF9 / RFU, SLC1A5 / Fold change vs veh, SLC1A5 / RFU, SLMO2 / Fold change vs veh, SLMO2 / RFU, ABCC4 / Fold change vs veh, ABCC4 / RFU, LOC101060439 /// RAP1B / Fold change vs veh, LOC101060439 /// RAP1B / RFU, RFX7 / Fold change vs veh, RFX7 / RFU, GTPBP10 / Fold change vs veh, GTPBP10 / RFU, CNEP1R1 / Fold change vs veh, CNEP1R1 / RFU, BIVM-ERCC5 /// ERCC5 / Fold change vs veh, BIVM-ERCC5 /// ERCC5 / RFU, ILF3 / Fold change vs veh, ILF3 / RFU 11762660_at / Fold change /veh 11762660_at / RFU VCAN (11757783_s_at) / Fold change /veh VCAN (11757783_s_at) / RFU DDX43 (11728927_at) / Fold change /veh DDX43 (11728927_at) / RFU KRT8 (11758188_x_at) / Fold change /veh KRT8 (11758188_x_at) / RFU NKD1 (11759106_at) / Fold change /veh NKD1 (11759106_at) / RFU SRD5A1 (11742802_a_at) / Fold change /veh SRD5A1 (11742802_a_at) / RFU TPSAB1 /// TPSB2 (11721975_s_at) / Fold change /veh TPSAB1 /// TPSB2 (11721975_s_at) / RFU GSTM3 (11746129_a_at) / Fold change /veh GSTM3 (11746129_a_at) / RFU IL23R (11737362_x_at) / Fold change /veh IL23R (11737362_x_at) / RFU TMEM51 (11727254_a_at) / Fold change /veh TMEM51 (11727254_a_at) / RFU PIWIL2 (11732686_x_at) / Fold change /veh PIWIL2 (11732686_x_at) / RFU ORM1 (11744905_x_at) / Fold change /veh ORM1 (11744905_x_at) / RFU CCDC152 (11743942_at) / Fold change /veh CCDC152 (11743942_at) / RFU ECM1 (11717891_a_at) / Fold change /veh ECM1 (11717891_a_at) / RFU IL23R (11748794_a_at) / Fold change /veh IL23R (11748794_a_at) / RFU TNFAIP8L3 (11732012_x_at) / Fold change /veh TNFAIP8L3 (11732012_x_at) / RFU MBOAT4 (11741988_at) / Fold change /veh MBOAT4 (11741988_at) / RFU 11764193_at / Fold change /veh 11764193_at / RFU TMEM53 (11763286_at) / Fold change /veh TMEM53 (11763286_at) / RFU MAGEB2 (11727129_at) / Fold change /veh MAGEB2 (11727129_at) / RFU TMEM200A (11744735_a_at) / Fold change /veh TMEM200A (11744735_a_at) / RFU CCDC152 (11751479_a_at) / Fold change /veh CCDC152 (11751479_a_at) / RFU FAM211A (11726209_a_at) / Fold change /veh FAM211A (11726209_a_at) / RFU RGS16 (11746705_a_at) / Fold change /veh RGS16 (11746705_a_at) / RFU VCAN (11755009_s_at) / Fold change /veh VCAN (11755009_s_at) / RFU RHOB (11743442_s_at) / Fold change /veh RHOB (11743442_s_at) / RFU RGS16 (11720943_a_at) / Fold change /veh RGS16 (11720943_a_at) / RFU RGS16 (11720944_at) / Fold change /veh RGS16 (11720944_at) / RFU, VPS4B / Fold change vs veh, VPS4B / RFU, CREB1 / Fold change vs veh, CREB1 / RFU, DNAJC13 / Fold change vs veh, DNAJC13 / RFU, GNAQ / Fold change vs veh, GNAQ / RFU, CDK5R1 / Fold change vs veh, CDK5R1 / RFU, ZRANB3 / Fold change vs veh, ZRANB3 / RFU, CUL4A / Fold change vs veh, CUL4A / RFU, CCNY / Fold change vs veh, CCNY / RFU, UFL1 / Fold change vs veh, UFL1 / RFU, COG3 / Fold change vs veh, COG3 / RFU, DIAPH2 / Fold change vs veh, DIAPH2 / RFU, SKA2 / Fold change vs veh, SKA2 / RFU, AFF3 / Fold change vs veh, AFF3 / RFU, LMF1 / Fold change vs veh, LMF1 / RFU, IPO11 / Fold change vs veh, IPO11 / RFU, DFFB / Fold change vs veh, DFFB / RFU, FOXP1 / Fold change vs veh, FOXP1 / RFU, CARD8 / Fold change vs veh, CARD8 / RFU, STRN3 / Fold change vs veh, STRN3 / RFU, ADK / Fold change vs veh, ADK / RFU, RASSF2 / Fold change vs veh, RASSF2 / RFU, WIPF1 / Fold change vs veh, WIPF1 / RFU, LARP1B / Fold change vs veh, LARP1B / RFU, RASA1 / Fold change vs veh, RASA1 / RFU, RB1 / Fold change vs veh, RB1 / RFU, PPFIA1 / Fold change vs veh, PPFIA1 / RFU, MAT2A / Fold change vs veh, MAT2A / RFU, CCT5 / Fold change vs veh, CCT5 / RFU, WDR92 / Fold change vs veh, WDR92 / RFU, CUX1 / Fold change vs veh, CUX1 / RFU, TTC7A / Fold change vs veh, TTC7A / RFU, TMEM135 / Fold change vs veh, TMEM135 / RFU, DEPTOR / Fold change vs veh, DEPTOR / RFU, CPM / Fold change vs veh, CPM / RFU, DNAJB6 / Fold change vs veh, DNAJB6 / RFU, CACNA2D3 / Fold change vs veh, CACNA2D3 / RFU, DTX4 / Fold change vs veh, DTX4 / RFU, TFCP2 / Fold change vs veh, TFCP2 / RFU, GMCL1 /// GMCL1P1 / Fold change vs veh, GMCL1 /// GMCL1P1 / RFU, AEBP2 / Fold change vs veh, AEBP2 / RFU, SNHG1 /// SNORD22 /// SNORD25 /// SNORD26 /// SNORD27 /// SNORD28 /// SNORD29 /// SNORD31 / Fold change vs veh, SNHG1 /// SNORD22 /// SNORD25 /// SNORD26 /// SNORD27 /// SNORD28 /// SNORD29 /// SNORD31 / Fold change (Aza/veh), C12orf56 (ProbeSet 11735607_a_at) / Fold change (ACY-1035/veh), C12orf56 (ProbeSet 11735607_a_at) / Fold change (Aza/veh), FGFR1OP (ProbeSet 11751329_s_at) / Fold change (ACY-1035/veh), FGFR1OP (ProbeSet 11751329_s_at) / Fold change (Aza/veh), VPS36 (ProbeSet 11739960_a_at) / Fold change (ACY-1035/veh), VPS36 (ProbeSet 11739960_a_at) / RFU SYPL1 (11715823_x_at) / Fold change /veh SYPL1 (11715823_x_at) / RFU IGFBP7 (11715501_s_at) / Fold change /veh IGFBP7 (11715501_s_at) / RFU REEP3 (11722064_at) / Fold change /veh REEP3 (11722064_at) / RFU IGLL1 (11728026_x_at) / Fold change /veh IGLL1 (11728026_x_at): dose or concentration left out as unconfirmed
# Conditions: ProbeSet 11758397_s_at; LIST B
structure (smiles),measurement,value
Nc1ccc(-c2cccs2)cc1NC(=O)c1ccc2c(c1)cc(C1CC1)n2CCN1CCOCC1 [ACY-1035],"RFU, RNF170",143.47 RFU
